This passage reports GI50 and TGI results from PubChem BioAssay (NCI).

Assay in all cases: NCI tumour cell line growth inhibition, 48 h
Assay [1] relates to 786-0 renal.
Assay [2] deals with A549 NSCLC.
Assay [3] relates to BT-549 breast.
For assay [4], the system named is HOP-92 NSCLC.
Assay [5] relates to LOX IMVI melanoma.
Assay [6] has as its system MOLT-4 leukemia.
Assay [7] relates to OVCAR-5 ovarian.
The subject of assay [8] is RPMI-8226 leukemia.
Assay [9] deals with SK-MEL-2 melanoma.
The subject of assay [10] is SW-620 colon.

Where “and” joins values, the source holds several entries; their conditions need not be identical. Identical values can stand only once.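 Five concentrations, 48 hours, 96-well plates. GI50 = concentration required for 50% inhibition of growth. The concentration for full growth arrest is given as TGI.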

On to `Cn1cc(-c2ccc(-c3ccc(C4=NC5(CC5)C(=O)N4C[C@@H]4CCN(C(=O)C5CC5)C4)cc3)cc2)cn1`, for which the GI50 was 10.5 µM in [1]; 12.5 µM in assay [2]; 6.09 µM in assay [3]; 23.6 µM in assay [4]; 1.47 µM in [5]; 4.31 µM in [6]. Besides, the GI50 was 38.6 µM in [7], 0.0883 µM in assay [8], 24.8 µM in [9] and 18.2 µM in assay [10]. Moreover, the TGI in assay [1] is more than 100 µM; in assay [2], 39.3 µM; in [3], 26.1 µM; in assay [4] it was more than 100 µM; in assay [5], 18 µM; in assay [6], 80.8 µM. Also, the TGI in assay [7] was more than 100 µM; in [8], 19.7 µM; in [9], more than 100 µM; in assay [10], more than 100 µM.

Take `CC12CCC(Br)C(C)(C)C1CC=C1C(=O)OCC1O2` (stereo not drawn): the TGI in assay [1] was more than 48.6 µM; in assay [2] it was more than 57.9 µM; in assay [3], 41 µM; in assay [4] it was 34.1 µM; in [5] it was 30.4 µM; in [6], more than 100 µM. Moreover, the TGI in [7] is more than 53.3 µM; in assay [8], more than 60.6 µM; in assay [9] it was 28.6 µM; in assay [10], 32.8 µM.

For `C[N+]1=C(/C=C\C=C\c2ccccc2)C(C)(C)c2ccccc21`, the GI50 in assay [1] is 3.19 µM; in assay [2] it was 4.43 µM; in assay [3], 2.34 µM; in assay [4], 2.35 µM; in assay [5], 1.31 µM; in assay [6] it was 2.13 µM. Besides, the GI50 is 3.88 µM in assay [7], 1.22 µM in assay [8], 1.69 µM in assay [9] and 1.38 µM in [10]. The TGI in [1] stood at 10.7 µM; in [2], 19.6 µM; in [3], 9.29 µM; in assay [4], 6.77 µM; in assay [5] it was 2.7 µM; in assay [6] it was 6.44 µM. For the same molecule, the TGI in assay [7] worked out at 13.3 µM; in [8], 6.53 µM; in assay [9], 4.31 µM; in [10] it was 4.08 µM.

In the case of `CCN1CCN(CC(=O)N2c3cccc4cccc(c34)N(C(=O)CN3CCN(CC)CC3)C2c2cn(-c3ccccc3)nc2-c2cccc([N+](=O)[O-])c2)CC1`, the GI50 is 1.66 µM in assay [1]; 1.67 µM in assay [3]; 0.671 µM in assay [4]; 1.62 µM in [5]; 1.69 µM in assay [6]; 1.8 µM in assay [7]. In addition, the values for the GI50 in assay [8], in assay [9] and in assay [10] were 1.59 µM, 1.84 µM and 1.73 µM, respectively. The TGI in assay [1] is 3.17 µM; in [3], 3.24 µM; in assay [4], 2.49 µM; in [5], 3.11 µM; in [6], 5.06 µM; in assay [7] it was 3.45 µM. Further, the TGI in [8] is 3.94 µM; in [9] it was 3.58 µM; in [10] it was 3.41 µM.

Regarding `NCCCNCCCCNC(=O)C(O)NC(=O)CCCCCCN=C(N)N` (stereo not drawn), the GI50 is more than 750 µM in assay [1]; 1640 µM in assay [2]; 1540 µM in [3]; 2660 µM in assay [4]; 828 µM in assay [5]; 1620 µM in assay [6]. In addition, the GI50 in assay [7] was more than 3010 µM; in [8], 1770 µM; in assay [9], 2040 µM; in assay [10] it was 1900 µM. Moreover, the TGI in [1] was more than 5000 µM; in assay [2], 750 µM and > 5000 µM; in [3], 750 µM and 4950 µM; in [4] it was 745 µM and > 4350 µM; in assay [5], 750 µM and 1570 µM; in [6] it was 750 µM and > 4510 µM. Moreover, the TGI in assay [7] was more than 5000 µM; in assay [8], 750 µM and > 3790 µM; in assay [9] it was 750 µM and 3420 µM; in [10] it was more than 5000 µM.

Regarding `COc1cc(-c2nc(SCCC(C)C)nc(Nc3ccc(S(N)(=O)=O)cc3)c2C#N)cc(OC)c1OC`, the GI50 in [1] was 2.16 µM; in [2], 3.46 µM; in assay [3], 2.12 µM; in assay [4], 1.48 µM; in assay [5], 1.91 µM; in assay [6], 2.39 µM. For the same molecule, the GI50 in [7] was 3.84 µM; in [8] it was 1.73 µM; in assay [9] it was 2.47 µM; in assay [10], 3.08 µM. Further, the TGI in assay [1] is 4.87 µM; in assay [2], more than 100 µM; in assay [3], 6.3 µM; in assay [4], 4.47 µM; in assay [5], 4.41 µM; in assay [6] it was more than 100 µM. Besides, the TGI in assay [7] was more than 100 µM; in [8], 6.79 µM; in assay [9] it was 6.16 µM; in assay [10] it was more than 100 µM.

In the case of `Cc1ncc(C(=O)Nc2ccc(CN3CCN(C)CC3)c(C(F)(F)F)c2)cc1C#Cc1cnc(N)cc1C#N`, the GI50 in assay [1] was 0.38 µM; in assay [2], 1.26 µM; in [3], 1.36 µM; in assay [4], 0.0911 µM; in assay [5], 0.0709 µM; in [6] it was 0.336 µM. In addition, the GI50 in assay [7] was 1.66 µM; in [8], 0.338 µM; in assay [9], 0.232 µM; in [10] it was 0.802 µM. Also, the TGI is 0.835 µM in [1]; 3.93 µM in [2]; 3.58 µM in assay [3]; 1.38 µM in assay [4]; 0.8 µM in assay [5]; 3.16 µM in [6]. For the same molecule, the TGI in [7] came out at 4 µM; in [8] it was 3.5 µM; in assay [9] it was 1.03 µM; in [10] it was 3.2 µM.
